Among the data in patent publication US10793576B2, “Compound used as Bruton's tyrosine kinase inhibitor and preparation method and application thereof” (Chengdu Brilliant Pharmaceutical Co., LTD., priority 2017, dated 2020) are IC50 values, retold here.

In one assay the test system is OCI-LY10 cells. Description: Cell proliferation inhibition in vitro, OCI-ly10 cells by CCK-8 method. The conditions noted are these: Homo sapiens, 72 hours, read-out: Inhibitions of cell activities IC50 (nM) OCI-LY10. Type of assay: cell-based. The protocol:
(§1) Test Example 2: Determination of the Inhibition of Cell Proliferation Inhibitory Activity in
(§2) vitro of compounds using different cell lines
(§3) 2: Preparation of the Compounds:
(§4) The compounds to be tested were diluted with DMSO to prepare a mother liquor at a final concentration of 10 mM for later use.
(§5) 3.1. Test of TMD8 and OCI-ly10 Cells by CCK-8 Method
(§6) Logarithmic growth phase cells were collected, counted and resuspended in complete medium. The cell concentration was adjusted to a suitable concentration (determined according to the cell density optimization test results), and seeded to 96-well plate and 100 μl of the cell suspension was added to each well. The cells were incubated in an incubator at 37° C., 100% relative humidity and 5% C02 for 24 hours.
(§7) The compounds to be tested were diluted with the medium to the set corresponding action concentration, and the cells were added at 25 µl/well. The cells were incubated in an incubator at 37° C., 100% relative humidity and 5% C02 for 72 hours.
(§8) The medium was aspirated and discarded, and a complete medium containing 10% of the test reagent was added and the obtained system was incubated in a 37° C. incubator for 1 hour-4 hours.
(§9) As: OA of the sample (cell+test reagent+test compound)
(§10) Ac: OA of the negative control (cell+test reagent+DMSO)
(§11) Ab: OA of the positive control (medium+test reagent+DMSO)
(§12) IC50 curve fitting was performed using the software Graphpad Prism 5 or XLfit and IC50 values were calculated.
(In general: Tetrazolium assays rely on reduction of a dye to a coloured formazan, in cell work by metabolically active cells.)

The next assay concerns TMD8 cells. Briefly: Cell proliferation inhibition in vitro, TMD8 cells by CCK-8 method. Type of assay: cell-based. The conditions noted are these: Homo sapiens, 72 hours, read-out: Inhibitions of cell activities IC50 (nM) TMD8. Here is the method:
as §1, §2, §3, §4, §5, §6, §7, §8, §9, §10, §11, §12

Another assay has as its system DOHH2 cells. Briefly: Cell proliferation inhibition in vitro, DOHH2 cells by CTG assay. The format is cell-based. The conditions noted are these: Homo sapiens, DOHH-2, 72 hours, read-out: Inhibitions of cell activities IC50 (nM) DOHH2. Here is the method:
as §1, §2, §3, §4
3.2 Test of DOHH2 Cells by CTG Assay
as §6
The compounds to be tested were diluted with the medium to the set corresponding action concentration, and the cells were added at 10 µl/well. The cells were incubated in an incubator set at 37° C., 100% relative humidity and 5% C02 for 72 hours.
The medium was aspirated and discarded, and 30 μl of test reagent was added. The plate was gentle shaken away from the light to lyse the cells.
as §9, §10, §11, §12

A further assay concerns the target BTK kinase (Homo sapiens (Human), UniProt Q06187). Description: In vitro assay for the inhibition of BTK kinase activity (Mobility-Shift Assay). The format is biochemical. The procedure, abridged: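 Fluorescently labelled peptide substrate converted by the kinase; substrate and phosphorylated product separated by charge on a microfluidic chip (mobility shift) and quantified separately. Results expressed as conversion rate; control wells received 100% DMSO.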

Chain of BTK kinase (Q06187 whole entry): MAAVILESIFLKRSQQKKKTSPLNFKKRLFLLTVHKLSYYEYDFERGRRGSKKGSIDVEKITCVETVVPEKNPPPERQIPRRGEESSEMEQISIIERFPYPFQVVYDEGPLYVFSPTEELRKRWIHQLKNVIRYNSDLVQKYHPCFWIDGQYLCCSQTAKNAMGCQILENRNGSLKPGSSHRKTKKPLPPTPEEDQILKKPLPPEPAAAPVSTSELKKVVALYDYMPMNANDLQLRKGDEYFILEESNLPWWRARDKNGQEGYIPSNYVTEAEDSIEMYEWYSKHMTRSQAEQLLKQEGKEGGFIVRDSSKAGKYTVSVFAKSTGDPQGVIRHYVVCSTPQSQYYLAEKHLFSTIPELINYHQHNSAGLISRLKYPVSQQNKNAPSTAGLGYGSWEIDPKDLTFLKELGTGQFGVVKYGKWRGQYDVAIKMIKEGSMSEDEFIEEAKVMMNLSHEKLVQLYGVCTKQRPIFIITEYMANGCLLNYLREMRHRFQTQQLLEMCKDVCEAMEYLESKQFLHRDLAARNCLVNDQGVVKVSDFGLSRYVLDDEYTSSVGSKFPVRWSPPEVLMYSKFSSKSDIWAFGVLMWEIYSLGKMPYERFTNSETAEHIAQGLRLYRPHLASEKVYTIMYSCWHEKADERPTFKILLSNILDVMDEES

As usually defined, the IC50 is the midpoint of a concentration-inhibition curve. Turning to `C=CC(=O)N1C(c2nc(-c3ccc(C(=O)Nc4cc(Cl)ccn4)cc3)c3c(N)nccn23)CC2CC21` (stereo not shown) [Example 71], the 50% inhibitory concentration (IC50) in the assay on OCI-LY10 cells came out at 1.4 nM; with TMD8 cells, 8.4 nM; in the assay on DOHH2 cells, 84 nM; on BTK kinase, 12 nM.

Turning to `C=CC(=O)N1CC2CCCC2C1c1nc(-c2ccc(C(=O)Nc3cc(Cl)ccn3)cc2)c2c(N)nccn12` (stereo not shown) [Example 68], the half-maximal inhibitory concentration (IC50) with OCI-LY10 cells amounted to 4.4 nM; with TMD8 cells it was 3.2 nM; in the assay with DOHH2 cells it was 172 nM; on BTK kinase it was 5.3 nM.

As to `C=CC(=O)N1C2CN[C@@H](C2)C1c1nc(-c2ccc(C(=O)Nc3ccccn3)cc2)c2c(N)nccn12` (stereo partly shown) [Example 13], the IC50 was 0.67 nM with OCI-LY10 cells, 0.38 nM in the assay on TMD8 cells, 138 nM with DOHH2 cells and 3.3 nM at BTK kinase.

In the case of `CC#CC(=O)N1CC2(CC2)C[C@H]1c1nc(-c2ccc(Oc3ccccc3)cc2)c2c(N)nccn12` [Example 92, (S)-1-(6-(8-amino-1-(4-phenoxyphenyl)imidazo[1,5-a]pyrazin-3-yl)-5-azaspiro[2.4]heptan-5-yl) but-2-yn-1-one], the half-inhibitory concentration (IC50) was 0.31 nM with OCI-LY10 cells, 7.6 nM in the assay on TMD8 cells, 712 nM in the assay on DOHH2 cells and 4.3 nM on BTK kinase.

Regarding `C=CC(=O)N1C[C@H]2[C@@H]([C@H]1c1nc(-c3ccc(C(=O)Nc4cc(Cl)ccn4)cc3)c3c(N)nccn13)C2(C)C` [Example 69], the IC50 with OCI-LY10 cells was determined as 0.74 nM; in the assay on TMD8 cells, 0.62 nM; in the assay with DOHH2 cells it was 124 nM; at BTK kinase it was 1.4 nM.

Regarding `C=CC(=O)N1C2C[C@@H](C1c1nc(-c3ccc(C(=O)Nc4cc(C(F)(F)F)ccn4)cc3)c3c(N)nccn13)N(C(C)=O)C2` (stereo partly shown) [Example 56], the 50% inhibitory concentration (IC50) was determined as 3.4 nM with OCI-LY10 cells, 5.9 nM in the assay on TMD8 cells, 74 nM in the assay on DOHH2 cells and 4.3 nM at BTK kinase.

Consider `CC#CC(=O)N1CC2CCCC2C1c1nc(-c2ccc(C(=O)Nc3cc(C(F)(F)F)ccn3)cc2)c2c(N)nccn12` (stereo not shown) [Example 43], for which the IC50 came out at 0.42 nM with OCI-LY10 cells, 2.3 nM with TMD8 cells, 217 nM in the assay with DOHH2 cells and 4.4 nM on BTK kinase.

Take `C=CC(=O)N1C2CCC1(c1nc(-c3ccc(C(=O)Nc4cc(C(F)(F)F)ccn4)cc3)c3c(N)nccn13)COC2` (stereo not shown) [Example 48]: the IC50 in the assay on OCI-LY10 cells stood at 0.46 nM; with TMD8 cells, 0.31 nM; in the assay on DOHH2 cells, 103 nM; at BTK kinase, 2.1 nM.

Take `CC#CC(=O)N1[C@H]2CC[C@@H]1[C@@H](c1nc(-c3ccc(C(=O)Nc4ccccn4)cc3)c3c(N)nccn13)C2` [Example 119, 4-(8-amino-3-((1R,2S,4S)-7-(but-2-ynoyl)-7-azabicyclo[2.2.1]heptan-2-yl)imidazo[1,5-a]pyrazin-1-yl)-N-(pyridin-2-yl)benzamide]: the IC50 was 0.42 nM in the assay on OCI-LY10 cells, 2.4 nM with TMD8 cells, greater than 1000 nM in the assay on DOHH2 cells and 43 nM on BTK kinase.

With `C=CC(=O)N1CC2CCCC2C1c1nc(-c2ccc(C(C)(O)c3ccccc3)cc2)c2c(N)nccn12` (stereo not shown) [Example 77], the IC50 came to 0.26 nM in the assay on OCI-LY10 cells, 2.5 nM in the assay with TMD8 cells, 212 nM in the assay with DOHH2 cells and 8.5 nM on BTK kinase.

On to `CN(C)C/C=C/C(=O)N1CC2CCCC2[C@H]1c1nc(-c2ccc(C(=O)Nc3ccccn3)cc2)c2c(N)nccn12` (stereo partly drawn) [Example 113, 4-(8-amino-3-((1S)-2-((E)-4-(dimethylamino)-2-butenoyl)octahydrocyclopenta [c]pyrrol-1-yl)imidazo[1,5-a]pyrazin-1-yl)-N-(pyridin-2-yl)benzamide], for which the IC50 with OCI-LY10 cells was 7.4 nM; in the assay on TMD8 cells, 12.5 nM; in the assay with DOHH2 cells it was greater than 1000 nM; at BTK kinase, 4.6 nM.

As to `C=CC(=O)N1C2CC[C@@H](C2)C1c1nc(-c2ccc(Oc3ccccc3)cc2)c2c(N)nccn12` (stereo partly shown) [Example 98], the IC50 was 0.33 nM in the assay with OCI-LY10 cells, 6.8 nM in the assay with TMD8 cells, greater than 1000 nM in the assay with DOHH2 cells and 24 nM on BTK kinase.

Take `CN(C/C=C/C(=O)N1CC2CCCC2[C@H]1c1nc(-c2ccc(C(=O)Nc3ccccn3)cc2)c2c(N)nccn12)C1CC1` (stereo partly drawn) [Example 115, 4-(8-amino-3-((1S)-2-((E)-4-(cyclopropyl(methyl)amino)-2-butenoyl)octahydrocyclopenta[c]pyrrol-1-yl)imidazo[1,5-a]pyrazin-1-yl)-N-(pyridin-2-yl) benzamide]: the half-inhibitory concentration (IC50) is 12.1 nM with OCI-LY10 cells, 17.6 nM in the assay on TMD8 cells, greater than 1000 nM with DOHH2 cells and 26 nM at BTK kinase.

Regarding `CC#CC(=O)N1[C@@H]2CC[C@@H](C2)[C@H]1c1nc(-c2ccc(C(=O)Nc3ccccn3)cc2)c2c(N)nccn12` [Example 23, 4-(8-amino-3-((1R,3S,4S)-2-(but-2-ynoyl)-2-azabicyclo[2.2.1]heptan-3-yl)imidazo [1,5-a]pyrazin-1-yl)-N-(pyridin-2-yl)benzamide], the 50% inhibitory concentration (IC50) was 2.4 nM in the assay with OCI-LY10 cells, 1.1 nM in the assay with TMD8 cells, greater than 1000 nM with DOHH2 cells and 49 nM on BTK kinase.

For `CC#CC(=O)N1C2C[C@@H](C1c1nc(-c3ccc(C(C)(O)c4ccccc4)cc3)c3c(N)nccn13)N(C(C)C)C2` (stereo partly shown) [Example 91], the half-maximal inhibitory concentration (IC50) with OCI-LY10 cells is 0.41 nM; in the assay on TMD8 cells it was 1.4 nM; with DOHH2 cells it was greater than 1000 nM; on BTK kinase it was 21 nM.

For the compound `C=CC(=O)N1[C@H]2CC[C@@H]1[C@@H](c1nc(-c3ccc(C(=O)Nc4ccccn4)cc3)c3c(N)nccn13)C2` [Example 118, 4-(3-((1R,2S,4S)-7-acryloyl-7-azabicyclo[2.2.1]heptan-2-yl)-8-aminoimidazo[1,5-a]pyrazin-1-yl)-N-(pyridin-2-yl)benzamide], the half-inhibitory concentration (IC50) turned out to be 4.1 nM in the assay on OCI-LY10 cells, 3.9 nM in the assay on TMD8 cells, 712 nM in the assay with DOHH2 cells and 5.6 nM at BTK kinase.

For `C=CC(=O)N1C2C[C@@H](C1c1nc(-c3ccc(Oc4ccccc4)cc3)c3c(N)nccn13)N(C)C2` (stereo partly shown) [Example 108], the half-inhibitory concentration (IC50) with OCI-LY10 cells is 2.7 nM; in the assay on TMD8 cells, 14.3 nM; in the assay on DOHH2 cells, greater than 1000 nM; on BTK kinase, 72 nM.

As for `C=CC(=O)N1C2C[C@@H](C1c1nc(-c3ccc(C(=O)Nc4ccccn4)cc3)c3c(N)nccn13)N(C)C2` (stereo partly shown) [Example 15], the IC50 was found to be 17.6 nM in the assay on OCI-LY10 cells, 64.5 nM in the assay on TMD8 cells, 716 nM in the assay with DOHH2 cells and 17.4 nM at BTK kinase.

Take `C=CC(=O)N1C2C[C@@H](C1c1nc(-c3ccc(C(=O)Nc4ccccn4)cc3)c3c(N)nccn13)N(C(C)C)C2` (stereo partly shown) [Example 16]: the IC50 was 3.1 nM with OCI-LY10 cells, 1.6 nM in the assay on TMD8 cells, greater than 1000 nM with DOHH2 cells and 9.5 nM on BTK kinase.

With `CC#CC(=O)N1CC2(CC2)C[C@H]1c1nc(-c2ccc(C(C)(O)c3ccccc3)cc2)c2c(N)nccn12` (stereo partly drawn) [Example 73, 1-((6S)-6-(8-amino-1-(4-(1-hydroxy-1-phenylethyl)phenyl)imidazo[1,5-a]pyrazin-3-yl)-5-azaspiro[2.4]heptan-5-yl)but-2-yn-1-one], the half-maximal inhibitory concentration (IC50) with OCI-LY10 cells is 1.4 nM; with TMD8 cells, 42.3 nM; with DOHH2 cells, 124 nM; at BTK kinase it was 18 nM.

As for `C=CC(=O)N1CC2CC1(c1nc(-c3ccc(C(=O)Nc4ccccn4)cc3)c3c(N)nccn13)CO2` (stereo not shown) [Example 9], the IC50 was 0.13 nM with OCI-LY10 cells, 0.2 nM in the assay with TMD8 cells, 74.3 nM in the assay on DOHH2 cells and 2.8 nM at BTK kinase.

`CC#CC(=O)N1C2CCC1(c1nc(-c3ccc(C(=O)Nc4cc(C(F)(F)F)ccn4)cc3)c3c(N)nccn13)COC2` (stereo not shown) [Example 49]: the IC50 with OCI-LY10 cells was determined as 3.4 nM; in the assay with TMD8 cells it was 6.4 nM; in the assay on DOHH2 cells, 436 nM; at BTK kinase it was 4.8 nM.
